{"source": "patent US20210046139A1", "about": "“VEGETATION WATERS AND USES THEREOF” (FATTORIA LA VIALLA DI GIANNI, ANTONIO E BANDINO LO FRANCO - …, priority 2018, published 2021)", "type_in_all_cases": "in vivo, Sprague-Dawley rats", "key": {"STZ diabetic rats [1]": {"test_system": "STZ diabetic rats", "test": "Plasma glucose and glycated hemoglobin (HbA1c)", "details": "for HbA1c / PLASMA GLUCOSE: 50 mg/kg/day, 5 weeks, mean ± S.E.", "excerpt": "(§1) A well-established model of streptozotocin (STZ)-induced diabetes in rats was used. Streptozotocin is a glucosamine derivative of nitrosurea which selectively destroys the β cells of the pancreatic islets and causes the development of diabetes with hyperglycemia and glycosuria. The model shares a series of characteristics with human diabetic complications at both a functional level and a biochemical level, such as, for example, a reduced nervous conduction, loss of small-diameter sensory nerve fibers in the skin, reduction in Na+ and K+-ATPase activity and early alterations of the thermal and mechanical nociceptive thresholds. In this study, diabetes was induced in 24 rats with a single intraperitoneal injection of 60 mg/kg of STZ dissolved in a sodium citrate buffer (pH 4.5). 24 rats injected only with the vehicle were used as non-diabetic controls. Hyperglycemia was confirmed by measuring glycosuria 72 hours after the injection of STZ using Keto-Diabur strips (KD-5000; Roche Diagnostics Spa, Italy). Only the animals with glycosuria >5% were classified as diabetic and included in the study. […] The animals were then randomized to receive the concentrate of the invention at an HT equivalent dose of 50 mg/kg/day or 50 mg/kg/day of pure HT in drinking water, according to the following treatment groups: The daily dose of compounds was administered starting from the 7th week after the injection of STZ or the vehicle. The treatment lasted 5 weeks and urine samples were taken. The animals were then sacrificed and the plasma, kidneys and sciatic nerves were removed. The sacrifice took place within 2 hours after the last administration of the concentrate, HT or the vehicle. During the trial, the rats were weighed weekly to monitor their weight gain/loss. Hyperglycemia was confirmed in every rat by measuring the glucose level in the blood taken from the vein of the tail with a suitable apparatus (Glucomen, Menarini, Italy), 15 days after the injection of STZ. A plasma glucose level above 300 mg/dL was defined as the hyperglycemia threshold for defining the animals as diabetics. At the end of the 5-week treatment period, urine and plasma were collected to measure the level of triglycerides (TG), total cholesterol (TC), high-density lipoprotein (HDL) and other parameters using commercially available diagnostic kits."}, "STZ diabetic rats [2]": {"test_system": "STZ diabetic rats", "test": "Mechanical nociceptive threshold (Randall-Selitto test)", "details": "non-diabetic rats", "excerpt": "A well-established model of streptozotocin (STZ)-induced diabetes in rats was used. Streptozotocin is a glucosamine derivative of nitrosurea which selectively destroys the β cells of the pancreatic islets and causes the development of diabetes with hyperglycemia and glycosuria. The model shares a series of characteristics with human diabetic complications at both a functional level and a biochemical level, such as, for example, a reduced nervous conduction, loss of small-diameter sensory nerve fibers in the skin, reduction in Na+ and K+-ATPase activity and early alterations of the thermal and mechanical nociceptive thresholds. In this study, diabetes was induced in 24 rats with a single intraperitoneal injection of 60 mg/kg of STZ dissolved in a sodium citrate buffer (pH 4.5). 24 rats injected only with the vehicle were used as non-diabetic controls. Hyperglycemia was confirmed by measuring glycosuria 72 hours after the injection of STZ using Keto-Diabur strips (KD-5000; Roche Diagnostics Spa, Italy). […] The animals were then randomized to receive the concentrate of the invention at an HT equivalent dose of 50 mg/kg/day or 50 mg/kg/day of pure HT in drinking water, according to the following treatment groups: The mechanical nociceptive threshold (Randall-Selitto test) was assessed using an electromechanical apparatus (Ugo Basile, Varese, Italy). […]"}, "STZ diabetic rats [3]": {"test_system": "STZ diabetic rats", "test": "Plasma total cholesterol, HDL and triglycerides", "details": "50 mg/kg/day, 5 weeks, mean ± S.E.", "excerpt": "as §1, with “vehicle.” for “vehicle. During the trial, the rats were weighed weekly to monitor their weight gain/loss. Hyperglycemia was confirmed in every rat by measuring the glucose level in the blood taken from the vein of the tail with a suitable apparatus (Glucomen, Menarini, Italy), 15 days after the injection of STZ. A plasma glucose level above 300 mg/dL was defined as the hyperglycemia threshold for defining the animals as diabetics.”"}, "[4]": {"details": "non-diabetic control rats (CTRL)"}}}
{"smiles": "OCCc1ccc(O)c(O)c1", "note": "[HT, hydroxytyrosol]", "values": [{"measurement": "reduction in HbA1c (glycated hemoglobin)", "setting": "STZ diabetic rats [1]; STZ diabetic rats vs. untreated diabetic rats", "value": 20, "unit": "%"}, {"measurement": "HbA1c", "setting": "STZ diabetic rats [1]; STZ diabetic rats", "value": "52.3 ± 5.3", "unit": "mM/mol"}, {"measurement": "PLASMA GLUCOSE", "setting": "STZ diabetic rats [1]; STZ diabetic rats", "value": "729.6 ± 36.5", "unit": "mg/dL"}, {"measurement": "HbA1c", "setting": "STZ diabetic rats [1]; [4]", "value": "16.7 ± 0.2", "unit": "mM/mol"}, {"measurement": "PLASMA GLUCOSE", "setting": "STZ diabetic rats [1]; [4]", "value": "186.1 ± 3.2", "unit": "mg/dL"}, {"measurement": "effect on mechanical nociceptive threshold", "setting": "STZ diabetic rats [2]", "value": "no effect"}, {"measurement": "PLASMA HDL", "setting": "STZ diabetic rats [3]; STZ diabetic rats", "value": "48.7 ± 1.6", "unit": "mg/dL"}, {"measurement": "PLASMA TC", "setting": "STZ diabetic rats [3]; STZ diabetic rats", "value": "118.1 ± 3.0", "unit": "mg/dL"}, {"measurement": "PLASMA TG", "setting": "STZ diabetic rats [3]; STZ diabetic rats", "value": "457.1 ± 60.7", "unit": "mg/dL"}, {"measurement": "PLASMA HDL", "setting": "STZ diabetic rats [3]; [4]", "value": "27.0 ± 0.4", "unit": "mg/dL"}, {"measurement": "PLASMA TC", "setting": "STZ diabetic rats [3]; [4]", "value": "84.4 ± 2.1", "unit": "mg/dL"}, {"measurement": "PLASMA TG", "setting": "STZ diabetic rats [3]; [4]", "value": "111.5 ± 8.6", "unit": "mg/dL"}]}
